The values that follow come from ChEMBL document CHEMBL4339189, “Dissymmetric pyridyl-substituted 3,5-bis(arylidene)-4-piperidones as anti-hepatoma agents by inhibiting NF-κB pathway activation” (Eur J Med Chem, 2019).

One series deals with HepG2. Nature of the series: Cytotoxicity against human HepG2 cells assessed as reduction in cell viability incubated for 24 hrs by MTT assay. The settings on record: HepG2, 24 h. The series is classed as functional, cell-based. (Tetrazolium dyes change colour on reduction, which living cells bring about.)
The test system of the next series is QGY-7703. Briefly: Cytotoxicity against human QGY7703 cells assessed as reduction in cell viability incubated for 24 hrs by MTT assay. The series is classed as functional, cell-based. The conditions noted are these: QGY-7703, 24 h.
The test system of the next series is SMMC-7721. Briefly: Cytotoxicity against human SMMC7721 cells assessed as reduction in cell viability incubated for 24 hrs by MTT assay. The conditions noted are these: SMMC-7721, 24 h. In kind it is functional, cell-based.
Series [1] in a line: Cytotoxicity against human HHL5 cells assessed as reduction in cell viability incubated for 24 hrs by MTT assay. The series is classed as cell-based. The conditions noted are these: HHL-5, 24 h.
Another series has as its system L02. Briefly: Cytotoxicity against human LO2 cells assessed as reduction in cell viability incubated for 24 hrs by MTT assay. In kind it is cell-based. The settings on record: L02, 24 h.
Series [2] concerns RAW264.7. Nature of the series: Cytotoxicity against mouse RAW264.7 cells assessed as reduction in cell viability at 6.0 uM incubated for 24 hrs by MTT assay. In kind it is cell-based. The conditions noted are these: raw264.7, 24 h.
The test system of series [3] is RAW264.7. Nature of the series: Antiinflammatory activity in mouse RAW264.7 cells assessed as inhibition of LPS-stimulated TNF-alpha production at 6.0 uM preincubated for 2 hrs followed by LPS stimulaton measured after 22 hrs by ELISA relative to control. In kind it is functional. On the technique in general: ELISA stands for enzyme-linked immunosorbent assay.
The subject of series [4] is RAW264.7. Nature of the series: Antiinflammatory activity in mouse RAW264.7 cells assessed as inhibition of LPS-stimulated IL-6 production 6.0 uM preincubated for 2 hrs followed by LPS stimulaton measured after 22 hrs by ELISA relative to control. In kind it is functional.

Molecules are shown by their SMILES. Activity calls are given as the source filed them. No cut-off for these calls is given here. A value given as a limit tells only on which side of the number the result lay.

As usually defined, the IC50 is the midpoint of a concentration-inhibition curve. What is called inhibition is the drop in the measured response relative to a control, in per cent. Consider `CN1C/C(=C\c2cccnc2)C(=O)/C(=C/c2ccccc2C(F)(F)F)C1`, for which the IC50 came out at 2.55 µM in the series on HepG2; 2.91 µM in the series on QGY-7703; 3.9 µM in the series on SMMC-7721; 11.1 µM in series [1]; 14.1 µM in the series on L02. Besides, the Activity entry with RAW264.7 [2] is listed as “Non-Toxic”. The inhibition at 6 µM with RAW264.7 [3] is below 30%. For the same molecule, the “inhibition (INH)” value in the series on RAW264.7 [4] is given as below 30%.
In the case of `CN1C/C(=C\c2ccncc2)C(=O)/C(=C/c2ccc(C(F)(F)F)cc2)C1`, the concentration for half-maximal inhibition (IC50) is 8.2 µM with HepG2; 10.4 µM in the series with QGY-7703; 17.7 µM with SMMC-7721; 12.2 µM in series [1]; 17.4 µM with L02. Further, the Activity result in the series on RAW264.7 [2] is “Non-Toxic”. Also, the inhibition entry in the series with RAW264.7 [3] and in the series with RAW264.7 [4] was “Active” throughout.
Take `Cc1ccc(S(=O)(=O)N2C/C(=C\c3cccnc3)C(=O)/C(=C/c3ccccc3C(F)(F)F)C2)cc1`: the IC50 was found to be 2.93 µM in the series on HepG2; 6.17 µM with QGY-7703; 6.7 µM in the series with SMMC-7721; 11.1 µM in series [1]; 12.3 µM in the series on L02. In the series on RAW264.7 [2], the Activity result is “Non-Toxic”. For the same molecule, the inhibition result in the series with RAW264.7 [3] and in the series with RAW264.7 [4] was “Active” in each case.
`O=C1/C(=C/c2ccncc2)CN(S(=O)(=O)c2ccccc2)C/C1=C\c1ccccc1C(F)(F)F`: the IC50 in the series with HepG2 is 7.02 µM; in the series on QGY-7703 it was 6.21 µM; in the series on SMMC-7721, 6.54 µM; in series [1], 12.1 µM; in the series on L02 it was 12.3 µM. Besides, the Activity entry in the series on RAW264.7 [2] is reported as “Non-Toxic”.
As to `COc1ccc(/C=C2\CN(C)C/C(=C\c3cccnc3)C2=O)c(OC)c1OC`, the IC50 came out at 5.16 µM with HepG2; 2.63 µM in the series on QGY-7703; 13.7 µM in the series with SMMC-7721; 11.6 µM in series [1]; 13.6 µM with L02. Besides, in the series on RAW264.7 [2], the Activity entry is given as “Non-Toxic”. Moreover, the inhibition result with RAW264.7 [3] and with RAW264.7 [4] was “Active” each time.
Consider `COc1cc(/C=C/C(=O)CC(=O)/C=C/c2ccc(O)c(OC)c2)ccc1O` [CURCUMIN], for which the IC50 in the series on HepG2 was determined as 17.4 µM; in the series on QGY-7703, 23.9 µM; in the series on SMMC-7721, 16.7 µM; in series [1] it was 24.2 µM; with L02, 22.7 µM.
Turning to `O=C1/C(=C/c2ccncc2)CNC/C1=C\c1ccccc1C(F)(F)F`, the IC50 with HepG2 came out at 6.13 µM; in the series on QGY-7703, 4.9 µM; in the series with SMMC-7721 it was 4.5 µM; in series [1], 9.87 µM; in the series on L02 it was 13.4 µM. Moreover, in the series with RAW264.7 [2], the Activity entry is given as “Non-Toxic”. Besides, the inhibition result in the series with RAW264.7 [3] and in the series with RAW264.7 [4] was “Active” throughout.
`CC(=O)Nc1ccc(S(=O)(=O)N2C/C(=C\c3ccncc3)C(=O)/C(=C/c3ccccc3C(F)(F)F)C2)cc1`: the IC50 with HepG2 came to 4.84 µM; in the series with QGY-7703, 5.56 µM; with SMMC-7721, 5.76 µM; in series [1], 8.87 µM; in the series with L02, 10.1 µM. In addition, the Activity result with RAW264.7 [2] is reported as “Non-Toxic”.
With `CN1C/C(=C\c2cccnc2)C(=O)/C(=C/c2ccc(F)cc2Br)C1`, the 50% inhibitory concentration (IC50) in the series on HepG2 worked out at 13 µM; with QGY-7703 it was 2.61 µM; in the series with SMMC-7721, 20.8 µM; in series [1], 11.3 µM; with L02, 14.4 µM. For the same molecule, the Activity entry in the series with RAW264.7 [2] is “Non-Toxic”. Moreover, the inhibition result in the series on RAW264.7 [3] and in the series on RAW264.7 [4] was “Active” in each case.
Take `O=C1/C(=C/c2ccncc2)CN(S(=O)(=O)c2ccc(Br)cc2)C/C1=C\c1ccccc1C(F)(F)F`: the IC50 in the series with HepG2 stood at 14.5 µM; in the series with QGY-7703, 7.06 µM; in the series on SMMC-7721, 10.5 µM; in series [1], 9.32 µM; in the series on L02, 12.6 µM. In the series with RAW264.7 [2], the Activity entry is “Non-Toxic”.
For the molecule `O=C1/C(=C/c2ccncc2)CN(S(=O)(=O)c2ccc(Cl)cc2)C/C1=C\c1ccccc1F`, the IC50 in the series with HepG2 was determined as 5.3 µM; in the series on QGY-7703, 12.5 µM; in the series on SMMC-7721 it was 9.6 µM; in series [1], 11.5 µM; in the series on L02 it was 15 µM. Moreover, the Activity result with RAW264.7 [2] is “Non-Toxic”. Moreover, the inhibition entry in the series with RAW264.7 [3] and in the series with RAW264.7 [4] was “Active” throughout.
On to `CN1C/C(=C\c2ccncc2)C(=O)/C(=C/c2ccc(C#N)cc2)C1`, for which the half-maximal inhibitory concentration (IC50) in the series with HepG2 stood at 13.9 µM; in the series with QGY-7703, 7.4 µM; in the series with SMMC-7721, 18.5 µM; in series [1], 11.5 µM; in the series with L02 it was 14 µM. The Activity result in the series on RAW264.7 [2] was “Non-Toxic”. The inhibition entry in the series with RAW264.7 [3] and with RAW264.7 [4] was “Active” throughout.
Turning to `N#Cc1ccc(S(=O)(=O)N2C/C(=C\c3cccnc3)C(=O)/C(=C/c3ccccc3F)C2)cc1`, the half-maximal inhibitory concentration (IC50) in the series with HepG2 was 6.6 µM; in the series on QGY-7703, 15.8 µM; in the series on SMMC-7721, 15.4 µM; in series [1], 15.5 µM; in the series on L02 it was above 20 µM. Further, in the series on RAW264.7 [2], the Activity entry is “Non-Toxic”. In addition, the inhibition result in the series on RAW264.7 [3] and with RAW264.7 [4] was “inactive” throughout.
As for `O=C1/C(=C/c2ccncc2)CN(S(=O)(=O)c2ccc([N+](=O)[O-])cc2)C/C1=C\c1ccccc1C(F)(F)F`, the IC50 is 13.4 µM with HepG2; 9.73 µM in the series with QGY-7703; above 20 µM with SMMC-7721; above 20 µM in series [1]; 18.6 µM in the series on L02. The Activity result in the series on RAW264.7 [2] is recorded as “Non-Toxic”.
With `O=C1/C(=C/c2ccncc2)CN(S(=O)(=O)c2ccc(F)cc2)C/C1=C\c1ccccc1C(F)(F)F`, the IC50 amounted to 4.01 µM with HepG2; 7.7 µM with QGY-7703; 9.27 µM with SMMC-7721; 12 µM in series [1]; 12.9 µM in the series with L02. Moreover, the Activity entry with RAW264.7 [2] is reported as “Non-Toxic”.
Take `Cc1ccc(S(=O)(=O)N2C/C(=C\c3ccncc3)C(=O)/C(=C/c3ccccc3C(F)(F)F)C2)cc1`: the IC50 in the series on HepG2 was 4.64 µM; in the series with QGY-7703, 5.09 µM; in the series on SMMC-7721, 5.59 µM; in series [1] it was 15.9 µM; in the series on L02, 12.8 µM. In addition, in the series with RAW264.7 [2], the Activity entry is on record as “Non-Toxic”.
Take `O=C1/C(=C/c2ccncc2)CN(S(=O)(=O)c2ccc(C(F)(F)F)cc2)C/C1=C\c1ccccc1C(F)(F)F`: the half-maximal inhibitory concentration (IC50) turned out to be 3.24 µM in the series with HepG2; 4.68 µM with QGY-7703; 3.84 µM with SMMC-7721; 11.7 µM in series [1]; 13.8 µM with L02. Moreover, the Activity result in the series with RAW264.7 [2] is “Non-Toxic”.
Turning to `O=C1/C(=C/c2ccccc2F)CNC/C1=C\c1ccccc1F`, the IC50 with HepG2 was 3.33 µM; in the series on QGY-7703 it was 4.97 µM; in the series on SMMC-7721 it was 8.8 µM; in series [1], 14.5 µM; in the series with L02 it was 10.2 µM.
`S=C(S)N1CCCC1`: the inhibition entry in the series on RAW264.7 [3] and in the series with RAW264.7 [4] was “Active” in each case.
As for `O=C1/C(=C/c2ccncc2)CN(S(=O)(=O)c2ccc(Cl)cc2)C/C1=C\c1ccccc1C(F)(F)F`, the IC50 is 7.19 µM with HepG2; 12.7 µM in the series on QGY-7703; 5.51 µM in the series with SMMC-7721; 11 µM in series [1]; 14.9 µM in the series on L02. In addition, the Activity result in the series with RAW264.7 [2] was “Non-Toxic”.
With `N#Cc1ccc(S(=O)(=O)N2C/C(=C\c3ccncc3)C(=O)/C(=C/c3ccccc3C(F)(F)F)C2)cc1`, the IC50 in the series with HepG2 amounted to 5.92 µM; in the series with QGY-7703 it was 6.29 µM; in the series on SMMC-7721, 9.61 µM; in series [1], 19.7 µM; with L02 it was 17.6 µM. The Activity entry in the series with RAW264.7 [2] is reported as “Non-Toxic”.
